Marks after values point to notes of the source that are not given here.
Key:
Format in all cases: cell-based, human
[1] = test system: XIAP mRNA; experiment: Quantitative PCR assay on XIAP mRNA; conditions: ΔΔCt, mifepristone induced model, time point not given
Description: (§1) Hyperoside and asperosaponin are individual compounds isolated from herbal medicines cuscuta chinensis and taxillus sutchuenensis, respectively. Progesterone is a compound often used to prevent spontaneous abortion and was used in present invention as positive treatment control for comparison with of the novel composition of the present invention.
(§2) Design of primers: Based on search for the sequence of the target gene mRNA in GenBank, the following primers were designed: […]
(§3) Total RNA extraction: Cells 4×10^5 cells/ml were seeded in the 6-well plate, 1 ml per well, and incubated at 37° C., 5% CO2 for 48 h. Then, the cells were grouped and treated according to the experiment scheme (see above). Extraction was conducted at two time points: 24 h and 24-24 h (24 hours of agent treatment and 24 hours after removing the agent), according to the procedures described as follows:
(§4) Placed the cells in the 1.5 ml EP tube, add Trizol 1 ml, and mix by shaking. Add chloroform 0.2 ml, cover tightly, and shake vigorously for 15 s. Store it at 4° C. for 2-3 min, centrifugal at 4° C., 12000 rpm×15 min. Transfer the supernatant to a new 1.5 ml EP tube, add an equal volume of isopropanol, incubate at 4° C. for 10 min, and centrifuge 4° C., 12000 rpm×10 min. After discarding the supernatant, add 75% ethanol (containing DEPC water) to wash the precipitate once, centrifugal 4° C. 7500 rpm×5 min, and discard ethanol. Air or vacuum dry for 5-10 min (not completely dry), add DEPC water to dissolve RNA, store at −80° C. for further process.
(§5) Reverse transcription: In a sterile 0.2 ml centrifuge tubes, prepare the reaction according to the following:
(§6) Quantitative PCR:experimental design is in accordance with standard ΔΔCt analytical method. The experimental procedure is as follows:
(§7) (2) Prepare reaction mix (performed on ice):
(§8) (3) PCR reaction: using a standard three-step reaction procedure: […]

[2] = test system: trophoblast cells; experiment: Annexin V/PI flow cytometry assay on early stage apoptosis in Mifepristone-Trophoblast Cell Model; conditions: comparative study, mifepristone induced model
Procedure: For example, the effect of apoptotic mRNA expressions in trophoblastic cells treated by mifepristone for 24 hours is shown in FIG. 3.
The experimental data on the cell proliferation rate, early apoptosis rate, Caspase-3 protein expression and cell supernatants HCG level expression were then subject to stepwise regression analysis, canonical correlation analysis and result optimization analysis. From these analyses, it is concluded that the preferred ratio among X1:X2:X3:X4:X5 is 0.9:0.00342:0.09037:0.0795:0. […] The number means the percentage of the cells underwent apoptosis.
as §1
The cells 4×10^5 cells/ml were seeded in the 6-well plate, 1 ml per well and incubated at 37° C., 5% CO2 for 48 h. Then, the cells were grouped and treated accordingly (see above). The assays were conducted as follows:
At the end of the predetermined treatment, the cells were digested and spun down(2000 rpm×5 min centrifugation). Discard the medium, wash the cells twice with cold PBS (resuspension and then 2000 rpm×5 min centrifugation). Remove the supernatant and resuspend the cell in 400 μl 1×Annexin V binding solution. Then, add 5 μl AnnexinV-EGFP staining solution to the cell suspension and mix gently. Incubate the cells at 2-8° C. in dark for 15 minutes. Add 10 μl PI (propidium iodide) and mix gently and incubate the cells in dark at 2-8° C. for 5 min. Detection by flow cytometry was conducted within one hour. The detection was repeated three times.

[3] = test system: Bcl-2 mRNA/Bax mRNA; experiment: Quantitative PCR assay, Bcl-2 mRNA/Bax mRNA ratio; conditions: ΔΔCt, mifepristone induced model, time point not given
Description: as §1, §2, §3, §4, §5, §6, §7, §8

[4] = test system: Bax mRNA; experiment: Quantitative PCR assay on Bax mRNA; conditions: ΔΔCt, mifepristone induced model, time point not given
Description: as §1, §2, §3, §4, §5, §6, §7, §8

[5] = test system: Bcl-2 mRNA; experiment: Quantitative PCR assay on Bcl-2 mRNA; conditions: ΔΔCt, mifepristone induced model, time point not given
Description: as §1, §2, §3, §4, §5, §6, §7, §8

[6] = test system: BcI-2/Bax; experiment: Western blot assay on Bcl-2/Bax expression ratio in trophoblastic cells; conditions: mifepristone induced model, Blank = 1.000
Procedure: Hyperoside and asperosaponin are individual compounds isolated from herbal medicines cuscuta chinensis and taxillus sutchuenensis, respectively.
(§9) Extraction of total cellular protein and cytoplasmic protein: The cells 4×10^5 cells/ml were seeded in the 6-well plate. After incubating at 37° C., 5% CO2 for 44 hours, the cells are grouped and treated according to the experiment scheme (see above). Extraction conducted at two treatment points: 24-24 h (treat with agent for 24 hours and continue incubation for 24 hours after removing the agent) and 24-48 h (treat with agent for 24 hours and continue incubation for 48 hours after removing the agent). The assays were conducted as follows:
(§10) At each predetermined time point, discard the culture medium, wash the cells three times with cold PBS solution, 3 min each time. After removing PBS, put the cells on ice. Add lysis buffer, 150 μl per well, and then place the cells on ice for 5 min, scrape the surface cells and transfer the cell lysate to an EP tube. Put the tube on ice for 30 min. After centrifuge (4° C., 12000 rpm/min, 15 min), transfer the supernatant to the EP tube and store it at −20° C. Determine the protein concentration with the BCA method and adjust the protein concentration to the same level. Add 3 μl 5× SDS-PAGE sampling buffer, denature at 100° C. for 5 min, and store the samples at −20° C. for Western Blotting. The Western Blotting procedure was conducted in a standard manner known in the art, description of which is omitted herewith for the sake of brevity.

[7] = test system: β-HCG; experiment: Radioimmunoassay on HCG expression in cell supernatant; conditions: mifepristone induced model; duration of treatment 48 h
Procedure: as §1
The cells (4×10^5 cells/ml) were seeded in the 6-well plate, 1 ml per well, and incubated at 37° C., 5% CO2 for 48 hours. Then, the cells were grouped and treated accordingly (see above). After 48 hour treatment, cell supernatants were collected and sent to the Department of Nuclear Medicine, Guangzhou University of Traditional Chinese Medicine, for measuring HCG (human chorionic gonadotropin) via a routine radioimmunoassay procedure.

[8] = test system: Caspase-9 mRNA; experiment: Quantitative PCR assay on Caspase-9 mRNA; conditions: ΔΔCt, mifepristone induced model, time point not given
Description: as §1, §2, §3, §4, §5, §6, §7, §8

[9] = test system: trophoblast cells; experiment: MTT assay on cell proliferation in mifepristone induced trophoblast model; conditions: Blank = 1.0000
Procedure: as §1
The trophoblast cells (adjust to 1.5×10^4/ml) were seeded in wells on a 96-well plate, […]. After incubating for 48 hours at 37° C., 5% CO2, the cells were grouped and treated accordingly (see above). Assays were conducted after treatment for 24 h and 48 h according to the following procedure:
Add 10 μl 1×MTT (3-(4,5-dimethylthiazol-2-yl)-2,5-diphenyltetrazolium bromide) to the well and continue incubation at 37° C., 5% CO2 for 4 hours to reduce MTT to formazan. Remove the supernatant from the well and add to each well 150 μl DMSO (dimethylsulfoxide) to dissolve formazan. After shaking the 96 plate for 10 min to make crystals completely dissolved, determine the OD value at 490 nm with a enzyme immunoassay analyzer. The determination was repeated three times.

[10] = test system: Caspase-3 mRNA; experiment: Quantitative PCR assay on Caspase-3 mRNA; conditions: ΔΔCt, mifepristone induced model, time point not given
Description: as §1, §2, §3, §4, §5, §6, §7, §8

[11] = test system: Caspase-9; experiment: Western blot assay on Caspase-9 expression in trophoblastic cells; conditions: mifepristone induced model, Blank = 1.000
Procedure: as §1, §9, §10

[12] = test system: Caspase-3; experiment: Western blot assay on Caspase-3 expression in trophoblastic cells; conditions: mifepristone induced model, Blank = 1.000
Procedure: as §1, §9, §10

[13] = test system: XIAP; experiment: Western blot assay on XIAP expression in trophoblastic cells; conditions: mifepristone induced model, Blank = 1.000
Procedure: as §1, §9, §10

[14] = test system: Bax; experiment: Western blot assay on Bax expression in trophoblastic cells; conditions: mifepristone induced model, Blank = 1.000
Procedure: as §1, §9, §10

SMILES | XIAPmRNA level [1] | early stage apoptosis, percentage of cells underwent apoptosis (Annexin V FITC/PI) ([2]; duration of treatment 24 h) | early stage apoptosis, percentage of cells underwent apoptosis (Annexin V FITC/PI) ([2]; duration of treatment 48 h) | Bcl-2 mRNA/BaxmRNA [3] | BaxmRNA level [4] | Bcl-2 mRNA level [5] | BcI-2/Bax expression ratio, relative ratio of the proteins compared with Blank ([6]; 24 h) | β-HCG level in cell supernatant [7] | Caspase-9 mRNA level [8] | cell proliferation rate as compared to the Blank (MTT) ([9]; duration of treatment 24 h) | cell proliferation rate as compared to the Blank (MTT) ([9]; duration of treatment 48 h) | Caspase-3 mRNA level [10] | Caspase-9 expression, relative amount of protein compared with Blank ([11]; 24 h) | Caspase-9 expression, relative amount of protein compared with Blank ([11]; 48 h) | Caspase-3 expression, relative amount of protein compared with Blank ([12]; 24 h) | Caspase-3 expression, relative amount of protein compared with Blank ([12]; 48 h) | XIAP expression, relative amount of protein compared with Blank ([13]; 24 h) | XIAP expression, relative amount of protein compared with Blank ([13]; 48 h) | BcI-2/Bax expression ratio, relative ratio of the proteins compared with Blank ([6]; 48 h) | Bax expression, relative amount of protein compared with Blank ([14]; 24 h) | further results
CC(=O)[C@H]1CC[C@H]2[C@@H]3CCC4=CC(=O)CC[C@]4(C)[C@H]3CC[C@]12C [Positive Control, progesterone] | 1.037 ± 0.425 | 17.400 ± 1.229 **^ΔΔ % | 16.367 ± 1.447 % | 7.351 ± 6.001 | 0.442 ± 0.442^ΔΔ | 2.971 ± 2.839 | 0.537 ± 0.051 | 1.067 ± 0.038*^Δ MIU/ML | 1.286 ± 0.780 | 0.805 ± 0.030 | 0.825 ± 0.061 | 3.089 ± 1.778^ΔΔ |  |  |  |  |  |  |  |  | 
CC1(C)CC[C@]2(C(=O)O[C@@H]3O[C@H](CO[C@@H]4O[C@H](CO)[C@@H](O)[C@H](O)[C@H]4O)[C@@H](O)[C@H](O)[C@H]3O)CC[C@]3(C)C(=CC[C@@H]4[C@@]5(C)CC[C@H](O[C@@H]6OC[C@H](O)[C@H](O)[C@H]6O)[C@@](C)(CO)[C@@H]5CC[C@]43C)[C@@H]2C1 [Asperosaponin, asperosaponin] | 1.253 ± 1.540 | 16.067 ± 2.974 **^ΔΔ % | 15.933 ± 3.742 % | 1.88 ± 1.196 | 3.181 ± 1.576 | 4.908 ± 3.037 | 1.905 ± 0.297**^ΔΔ∇∇▴▴ | 0.870 ± 0.026 MIU/ML | 1.240 ± 0.945 | 0.787 ± 0.086 | 0.809 ± 0.019 | 2.783 ± 0.541 | 1.962 ± 0.273^Δ | 1.887 ± 0.742 | 1.372 ± 0.338^Δ | 1.508 ± 0.217*^ΔΔ▴▴□ | 2.127 ± 0.421 | 1.706 ± 0.492 | 1.503 ± 0.454 | 1.503 ± 0.180^ΔΔ▾▾ | Bax expression, relative amount of protein compared with Blank ([14]; 48 h): 1.804 ± 0.558
O=c1c(O[C@@H]2O[C@H](CO)[C@H](O)[C@H](O)[C@H]2O)c(-c2ccc(O)c(O)c2)oc2cc(O)cc(O)c12 [Hyperoside, hyperoside] | 1.315 ± 0.706 | 16.367 ± 1.942 **^ΔΔ % | 15.633 ± 2.136 % | 1.470 ± 1.321 | 2.469 ± 1.058^Δ | 2.726 ± 1.419 | 1.544 ± 0.726^ΔΔ∇∇ | 1.377 ± 0.142 MIU/ML | 3.512 ± 3.828 | 0.788 ± 0.072 | 0.869 ± 0.029 | 4.640 ± 1.865^Δ | 2.079 ± 0.267^Δ | 2.221 ± 0.651 | 1.847 ± 0.123 | 1.648 ± 0.206**^Δ▴ | 1.528 ± 0.317 | 1.673 ± 0.768 | 0.518 ± 0.186 | 1.687 ± 0.519*^ΔΔ▴▴▾▾ | Bax expression, relative amount of protein compared with Blank ([14]; 48 h): 2.544 ± 0.383
